System: aerobic bacteria
Experiment: total bacterial count test on finished gloves (TSA plates)
Details: FIG. 5, total bacteria count on prepared articles as a function of CHG concentration in the coagulant
Protocol: In order to determine the effectiveness of the antimicrobial coagulant on a finished article, a total bacterial count test was completed on the article prepared using the above formulas. The following three concentrations were prepared: 0.8% Saline Solution (sodium Chloride), 4% TSA & 6.5% SDA solution, which were subsequently sterilized at 121° C. for 15 minutes. Three gloves made with each formula were cut into two pieces each and were soaked into 60 ml Saline solution and shaken for 10 minutes. After that, 1 ml of the solution and 1 ml of Agar solution (TSA and SDA) were pipetted out into a Petri dish. The Petri dish plates were incubated for 2 days at 30-35° C. for TSA & 4 days at 20-25° C. for SDA. The colonies on each plate was counted and total fungus/aerobic bacteria count per glove was calculated as: Total Aerobic Bacteria Count Per Glove=(Count of TSA plate*60)/3 Total Fungus Count Per Glove=(Count of SDA plate*60)/3 The results of total bacteria count on TSA for above four samples and control sample are listed below.

N=C(NCCCCCCNC(=N)NC(=N)Nc1ccc(Cl)cc1)NC(=N)Nc1ccc(Cl)cc1.O=C(O)[C@H](O)[C@@H](O)[C@H](O)[C@H](O)CO.O=C(O)[C@H](O)[C@@H](O)[C@H](O)[C@H](O)CO [CHG, chlorhexidine gluconate]
concentration of CHG up to which total bacteria count decreased (above it the count increased): approximately 0.02%
